Experimental data reported in publication PMC4628008, “Characterization of Lactobacillus salivarius alanine racemase: short-chain carboxylate-activation and the role of A131” (SpringerPlus, 2015).
Residue numbers refer to the chain shown, from its start. Numbers in names are those of the source.

Tests used:
[1] = biological target: T1, L. salivarius alanine racemase (ALR) (Ligilactobacillus salivarius, UniProt Q1WV14, A131K); experiment: UPLC activity assay; type: biochemical; conditions: 20 mM L-alanine; 0.05 mM PLP; pH 7.0 (MES), 30 °C
T1 construct: full-length ORF in pET-28a (NdeI/XhoI, own stop codon), N-terminal His tag, tag kept; E. coli BL21-CodonPlus(DE3)-RIPL

[2] = biological target: T2, L. salivarius alanine racemase (ALR) (Ligilactobacillus salivarius, UniProt Q1WV14); experiment: UPLC activity assay; type: biochemical; conditions: 20 mM L-alanine; 0.05 mM PLP; pH 7.0 (MES), 30 °C
T2 construct: full-length ORF in pET-28a (NdeI/XhoI, own stop codon), N-terminal His tag, tag kept; E. coli BL21-CodonPlus(DE3)-RIPL
T2 sequence (Q1WV14 1-371): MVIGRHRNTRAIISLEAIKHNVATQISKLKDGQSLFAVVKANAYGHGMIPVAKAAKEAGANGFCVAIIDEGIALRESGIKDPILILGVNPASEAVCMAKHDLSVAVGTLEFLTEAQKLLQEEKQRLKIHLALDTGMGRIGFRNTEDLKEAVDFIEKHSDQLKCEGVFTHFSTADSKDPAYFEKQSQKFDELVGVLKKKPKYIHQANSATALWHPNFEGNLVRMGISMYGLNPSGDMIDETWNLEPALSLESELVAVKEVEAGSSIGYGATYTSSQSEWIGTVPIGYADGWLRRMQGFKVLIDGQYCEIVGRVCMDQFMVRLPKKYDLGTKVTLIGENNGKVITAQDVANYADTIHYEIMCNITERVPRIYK

[3] = biological target: T2, L. salivarius alanine racemase (ALR); experiment: UPLC activity assay; type: biochemical; conditions: 20 mM L-alanine; 0.05 mM PLP; pH 7.0 (MES), 30 °C; activator
purified protein = substrate: C[C@H](N)C(=O)O; experiment: purified protein; conditions: no acetate, 0.05 mM PLP, pH 7.0 (MES), 30 °C

T1 sequence (Q1WV14 whole entry A131K): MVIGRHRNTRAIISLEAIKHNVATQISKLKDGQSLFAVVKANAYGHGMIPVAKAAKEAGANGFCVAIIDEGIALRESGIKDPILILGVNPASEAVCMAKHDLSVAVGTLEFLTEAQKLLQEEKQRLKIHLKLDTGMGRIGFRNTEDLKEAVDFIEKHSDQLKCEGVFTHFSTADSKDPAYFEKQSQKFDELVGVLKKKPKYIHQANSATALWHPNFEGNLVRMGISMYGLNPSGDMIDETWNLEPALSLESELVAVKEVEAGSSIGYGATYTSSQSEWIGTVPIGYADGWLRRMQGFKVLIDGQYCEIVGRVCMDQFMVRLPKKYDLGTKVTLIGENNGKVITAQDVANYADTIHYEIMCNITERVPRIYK

For CC(O)C(=O)O (racemic) [D, L-lactate], the “relative activity at 1 mM (inhibition)” value [1] was “ALR and ALR^A131K were both inhibited by D, L-lactate” and the “relative activity at 1 mM (inhibition)” value [2] was “ALR and ALR^A131K were both inhibited by D, L-lactate”.

CC(=O)C(=O)O [pyruvate] was tested, and the “relative activity at 1 mM (inhibition)” value [1] was “succinate, pyruvate, 2-oxoglutarate, oxaloacetate and aspartate also more strongly inhibited ALR^A131K than ALR”.

CCC(=O)O [propionate] was tested, and the “relative activity at 1 mM (inhibition)” value [1] was “both propionate and butyrate strongly inhibited ALR^A131K” and the “relative activity at 1 mM (activation)” value [3] was “they strongly activated L. salivarius ALR”.

For CCCC(=O)O [butyrate], the “relative activity at 1 mM (inhibition)” value [1] was “both propionate and butyrate strongly inhibited ALR^A131K” and the “relative activity at 1 mM (activation)” value [3] was “they strongly activated L. salivarius ALR”.

For O=C(O)CC(=O)C(=O)O [oxaloacetate], the “relative activity at 1 mM (inhibition)” value [1] was “succinate, pyruvate, 2-oxoglutarate, oxaloacetate and aspartate also more strongly inhibited ALR^A131K than ALR”.

B1: L. salivarius alanine racemase (ALR) (Ligilactobacillus salivarius UCC118) (protein)
chain: T2 sequence (Q1WV14 1-371)
B1 gave a Km (purified protein) of 11.5 mM.

B2: L. salivarius alanine racemase (ALR) (Ligilactobacillus salivarius UCC118; A131K) (protein)
chain: T2 sequence (Q1WV14 1-371) with A131K
B2 gave a Km (purified protein) of 9.20 mM.
